# Experimental data from patent publication US20240409585A1, “MACROCYCLIC IMMUNOMODULATORS” (priority 2021, published 2024).
# Numbered stars: 1 amine (or outer) side, 2 acyl side, 3 side chain; on linkers, the order of the positions; unused ones are H or OH. Bridge positions count the residues as written; N and C are the ends. Square brackets hold non-standard residues; d marks the D form. Peptide text beside a SMILES is read from it. * marks the point of attachment. Phe(3,4,5-F3) = N[C@@H](Cc1cc(F)c(F)c(F)c1)C(=O)O; Phe(3-CF3) = N[C@@H](Cc1cccc(C(F)(F)F)c1)C(=O)O; Ala(morpholin-4-yl) = N[C@@H](CN1CCOCC1)C(=O)O; Phe(4-COOH) = N[C@@H](Cc1ccc(C(=O)O)cc1)C(=O)O; X53 = O=C([C@H](Cc1cc(F)c(F)cc1F)N[*:1])[*:2]; Phe(3,4-F2) = N[C@@H](Cc1ccc(F)c(F)c1)C(=O)O; Bip = N[C@@H](Cc1ccc(-c2ccccc2)cc1)C(=O)O; Phe(3-Cl) = N[C@@H](Cc1cccc(Cl)c1)C(=O)O; Phe(2-Cl) = N[C@@H](Cc1ccccc1Cl)C(=O)O; Phe(3-Me) = Cc1cccc(C[C@H](N)C(=O)O)c1; Phe(4-Me) = Cc1ccc(C[C@H](N)C(=O)O)cc1; Phe(2-F) = N[C@@H](Cc1ccccc1F)C(=O)O; Val(3-OH) = CC(C)(O)[C@H](N)C(=O)O; hArg = N=C(N)NCCCC[C@H](N)C(=O)O; hPhe = N[C@@H](CCc1ccccc1)C(=O)O; Cha = N[C@@H](CC1CCCCC1)C(=O)O; Carboxymethyl = O=C(O)C*; NMeA = CN[C@@H](C)C(=O)O; Orn = NCCC[C@H](N)C(=O)O; Dab = NCC[C@H](N)C(=O)O
# Target: T1, Alexa fluor-647 labeled human PD-L1-Ig binding to Jurkat cell line over-expressing human PD-1 (Homo sapiens, UniProt Q15116)
# T1 construct: expressed in transfected cells; host or cells: Jurkat
# Assay: Jurkat-PD-1 Cell Binding High-Content Screening Assay (CBA): Method 3 (Alexa fluor-647 labeled PD-L1-Ig)
# Conditions: Jurkat-PD-1 cells, Alexa fluor-647 labeled PD-L1-Ig 177 nM; head μM; read-out: CBA Method 3 μM
# Method in brief: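 Jurkat cells over-expressing human PD-1 in RPMI/10% FCS were preincubated 2 h at 37 °C with compound, then exposed 1 h to Alexa fluor-647 labeled human PD-L1-Ig (177 nM final). Cells fixed in 4% paraformaldehyde with Hoechst 33342 and binding quantified by high-content imaging.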
# T1 sequence (Q15116 25-288): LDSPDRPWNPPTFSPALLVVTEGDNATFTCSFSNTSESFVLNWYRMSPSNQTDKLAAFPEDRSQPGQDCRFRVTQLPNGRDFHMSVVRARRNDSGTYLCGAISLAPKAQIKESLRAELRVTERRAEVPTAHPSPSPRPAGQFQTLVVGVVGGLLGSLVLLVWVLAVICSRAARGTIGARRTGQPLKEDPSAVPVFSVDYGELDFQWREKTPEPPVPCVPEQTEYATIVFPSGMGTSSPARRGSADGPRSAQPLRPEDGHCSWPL
row,IC50,Structure (SMILES)
1,0.16 µM,CC(C)C[C@H]1NC(=O)[C@H](C)N(C)C(=O)[C@H](Cc2ccc(C(=O)O)cc2)NC(=O)[C@H](Cc2ccc(-c3ccccc3)cc2)NC(=O)[C@H](CCc2ccccc2)NC(=O)[C@H](Cc2cccc(C(F)(F)F)c2)NC(=O)[C@H](CC(=O)N[C@@H](CC(=O)O)C(=O)O)NC(=O)[C@H](Cc2ccc(C(=O)O)cc2)NC(=O)[C@H](CN2CCOCC2)NC(=O)CSC[C@@H](C(=O)N[C@@H](CCN)C(N)=O)NC(=O)[C@H](CCC(N)=O)NC(=O)[C@H](C(C)C)NC(=O)[C@H](CC2CCCCC2)NC(=O)[C@H](CCN)NC1=O [Example 5281] ({CH2CO}-[Ala(morpholin-4-yl)][Phe(4-COOH)]D(Asp)[Phe(3-CF3)][hPhe][Bip][Phe(4-COOH)][NMeA][dL][Dab][Cha]VQC[Dab]-NH2; thioether N-14)
2,0.17 µM,Cc1cccc(C[C@@H]2NC(=O)[C@H](CC(=O)O)NC(=O)[C@H](Cc3ccc(OCC(=O)O)cc3)NC(=O)[C@H](CCCCNC(=N)N)NC(=O)CSC[C@@H](C(=O)N[C@@H](CCN)C(N)=O)NC(=O)[C@H](CO)NC(=O)[C@H](C(C)(C)O)NC(=O)[C@H](CC3CCCCC3)NC(=O)[C@H](CCN)NC(=O)[C@@H](CC(C)C)NC(=O)[C@H](C)N(C)C(=O)[C@H](CCC(N)=O)NC(=O)[C@H](Cc3ccc(-c4ccccc4)cc3)NC(=O)[C@H](CCc3ccccc3)NC2=O)c1 [Example 5282] ({CH2CO}-[hArg]Y(Carboxymethyl)D[Phe(3-Me)][hPhe][Bip]Q[NMeA][dL][Dab][Cha][Val(3-OH)]SC[Dab]-NH2; thioether N-14)
3,0.01 µM,Cc1cccc(C[C@@H]2NC(=O)[C@H](CC(=O)O)NC(=O)[C@H](Cc3ccc(OCC(=O)O)cc3)NC(=O)[C@H](CCCCNC(=N)N)NC(=O)CSC[C@@H](C(=O)N[C@@H](CCN)C(N)=O)NC(=O)[C@H](CCC(=O)O)NC(=O)[C@H](C(C)C)NC(=O)[C@H](CC3CCCCC3)NC(=O)[C@H](CCN)NC(=O)[C@@H](CC(C)C)NC(=O)[C@H](C)N(C)C(=O)[C@H](CCC(N)=O)NC(=O)[C@H](Cc3ccc(-c4ccccc4)cc3)NC(=O)[C@H](CCc3ccccc3)NC2=O)c1 [Example 5283] ({CH2CO}-[hArg]Y(Carboxymethyl)D[Phe(3-Me)][hPhe][Bip]Q[NMeA][dL][Dab][Cha]VEC[Dab]-NH2; thioether N-14)
4,0.3 µM,"Cc1cccc(C[C@@H]2NC(=O)[C@H](CC(=O)O)NC(=O)[C@H](Cc3ccc(OCC(=O)O)cc3)NC(=O)[C@H](Cc3ccc(F)c(F)c3)NC(=O)CSC[C@@H](C(=O)N[C@@H](CCN)C(N)=O)NC(=O)[C@H](CCCN)NC(=O)[C@H](C(C)C)NC(=O)[C@H](CC3CCCCC3)NC(=O)[C@H](CCN)NC(=O)[C@@H](CC(C)C)NC(=O)[C@H](C)N(C)C(=O)[C@H](CCC(N)=O)NC(=O)[C@H](Cc3ccc(-c4ccccc4)cc3)NC(=O)[C@H](Cc3ccc(C(=O)O)cc3)NC2=O)c1 [Example 5285] ({CH2CO}-[Phe(3,4-F2)]Y(Carboxymethyl)D[Phe(3-Me)][Phe(4-COOH)][Bip]Q[NMeA][dL][Dab][Cha]V[Orn]C[Dab]-NH2; thioether N-14)"
5,0.27 µM,"Cc1cccc(C[C@@H]2NC(=O)[C@H](CC(=O)O)NC(=O)[C@H](Cc3ccc(OCC(=O)O)cc3)NC(=O)[C@H](Cc3cc(F)c(F)c(F)c3)NC(=O)CSC[C@@H](C(=O)N[C@@H](CCN)C(N)=O)NC(=O)[C@H](CCCN)NC(=O)[C@H](C(C)C)NC(=O)[C@H](CC3CCCCC3)NC(=O)[C@H](CCN)NC(=O)[C@@H](CC(C)C)NC(=O)[C@H](C)N(C)C(=O)[C@H](CCC(N)=O)NC(=O)[C@H](Cc3ccc(-c4ccccc4)cc3)NC(=O)[C@H](Cc3ccc(C(=O)O)cc3)NC2=O)c1 [Example 5287] ({CH2CO}-[Phe(3,4,5-F3)]Y(Carboxymethyl)D[Phe(3-Me)][Phe(4-COOH)][Bip]Q[NMeA][dL][Dab][Cha]V[Orn]C[Dab]-NH2; thioether N-14)"
6,0.1 µM,Cc1cccc(C[C@@H]2NC(=O)[C@H](CC(=O)O)NC(=O)[C@H](Cc3ccc(OCC(=O)O)cc3)NC(=O)[C@H](Cc3cc(F)c(F)cc3F)NC(=O)CSC[C@@H](C(=O)N[C@@H](CCN)C(N)=O)NC(=O)[C@H](CCCN)NC(=O)[C@H](C(C)C)NC(=O)[C@H](CC3CCCCC3)NC(=O)[C@H](CCN)NC(=O)[C@@H](CC(C)C)NC(=O)[C@H](C)N(C)C(=O)[C@H](CCC(N)=O)NC(=O)[C@H](Cc3ccc(-c4ccccc4)cc3)NC(=O)[C@H](Cc3ccc(C(=O)O)cc3)NC2=O)c1 [Example 5290] ({CH2CO}-[X53]Y(Carboxymethyl)D[Phe(3-Me)][Phe(4-COOH)][Bip]Q[NMeA][dL][Dab][Cha]V[Orn]C[Dab]-NH2; thioether N-14)
7,0.06 µM,Cc1cccc(C[C@@H]2NC(=O)[C@H](CC(=O)O)NC(=O)[C@H](Cc3ccc(OCC(=O)O)cc3)NC(=O)[C@H](Cc3ccccc3F)NC(=O)CSC[C@@H](C(=O)N[C@@H](CCN)C(N)=O)NC(=O)[C@H](CCCN)NC(=O)[C@H](C(C)C)NC(=O)[C@H](CC3CCCCC3)NC(=O)[C@H](CCN)NC(=O)[C@@H](CC(C)C)NC(=O)[C@H](C)N(C)C(=O)[C@H](CCC(N)=O)NC(=O)[C@H](Cc3ccc(-c4ccccc4)cc3)NC(=O)[C@H](Cc3ccc(C(=O)O)cc3)NC2=O)c1 [Example 5293] ({CH2CO}-[Phe(2-F)]Y(Carboxymethyl)D[Phe(3-Me)][Phe(4-COOH)][Bip]Q[NMeA][dL][Dab][Cha]V[Orn]C[Dab]-NH2; thioether N-14)

# Same assay, conditions: Jurkat-PD-1 cells, Alexa fluor-647 labeled PD-L1-Ig 177 nM; nM; read-out: CBA Method 3
row,IC50,Structure (SMILES)
1,0.0018 µM,Cc1cccc(C[C@@H]2NC(=O)[C@H](CC(=O)O)NC(=O)[C@H](Cc3ccc(OCC(=O)O)cc3)NC(=O)[C@H](Cc3cccc(Cl)c3)NC(=O)CSC[C@@H](C(=O)N[C@@H](CCN)C(N)=O)NC(=O)[C@H](CCCN)NC(=O)[C@H](C(C)C)NC(=O)[C@H](CC3CCCCC3)NC(=O)[C@H](CCN)NC(=O)[C@@H](CC(C)C)NC(=O)[C@H](C)N(C)C(=O)[C@H](CCC(N)=O)NC(=O)[C@H](Cc3ccc(-c4ccccc4)cc3)NC(=O)[C@H](Cc3ccc(C(=O)O)cc3)NC2=O)c1 [Example 5286] ({CH2CO}-[Phe(3-Cl)]Y(Carboxymethyl)D[Phe(3-Me)][Phe(4-COOH)][Bip]Q[NMeA][dL][Dab][Cha]V[Orn]C[Dab]-NH2; thioether N-14)
2,0.0008 µM,Cc1ccc(C[C@@H]2NC(=O)CSC[C@@H](C(=O)N[C@@H](CCN)C(N)=O)NC(=O)[C@H](CCCN)NC(=O)[C@H](C(C)C)NC(=O)[C@H](CC3CCCCC3)NC(=O)[C@H](CCN)NC(=O)[C@@H](CC(C)C)NC(=O)[C@H](C)N(C)C(=O)[C@H](CCC(N)=O)NC(=O)[C@H](Cc3ccc(-c4ccccc4)cc3)NC(=O)[C@H](Cc3ccc(C(=O)O)cc3)NC(=O)[C@H](Cc3cccc(C)c3)NC(=O)[C@H](CC(=O)O)NC(=O)[C@H](Cc3ccc(OCC(=O)O)cc3)NC2=O)cc1 [Example 5289] ({CH2CO}-[Phe(4-Me)]Y(Carboxymethyl)D[Phe(3-Me)][Phe(4-COOH)][Bip]Q[NMeA][dL][Dab][Cha]V[Orn]C[Dab]-NH2; thioether N-14)
3,0.0002 µM,Cc1cccc(C[C@@H]2NC(=O)[C@H](CC(=O)O)NC(=O)[C@H](Cc3ccc(OCC(=O)O)cc3)NC(=O)[C@H](Cc3ccccc3Cl)NC(=O)CSC[C@@H](C(=O)N[C@@H](CCN)C(N)=O)NC(=O)[C@H](CCCN)NC(=O)[C@H](C(C)C)NC(=O)[C@H](CC3CCCCC3)NC(=O)[C@H](CCN)NC(=O)[C@@H](CC(C)C)NC(=O)[C@H](C)N(C)C(=O)[C@H](CCC(N)=O)NC(=O)[C@H](Cc3ccc(-c4ccccc4)cc3)NC(=O)[C@H](Cc3ccc(C(=O)O)cc3)NC2=O)c1 [Example 5291] ({CH2CO}-[Phe(2-Cl)]Y(Carboxymethyl)D[Phe(3-Me)][Phe(4-COOH)][Bip]Q[NMeA][dL][Dab][Cha]V[Orn]C[Dab]-NH2; thioether N-14)
